Values of other authors as cited in patent publication US6472403B2, “αV integrin receptor antagonists” (Merck & Co., Inc., priority 2000, dated 2002).

System: postmenopausal osteoporotic women
Conditions: median of 22 months of treatment

CC[C@H](C)[C@H](NC(=O)[C@H](CCC(=O)O)NC(=O)[C@H](CO)NC(=O)[C@@H](NC(=O)[C@@H](N)CO)C(C)C)C(=O)N[C@@H](CCC(N)=O)C(=O)N[C@@H](CC(C)C)C(=O)N[C@@H](CCSC)C(=O)N[C@@H](Cc1cnc[nH]1)C(=O)N[C@@H](CC(N)=O)C(=O)N[C@@H](CC(C)C)C(=O)NCC(=O)N[C@@H](CCCCN)C(=O)N[C@@H](Cc1cnc[nH]1)C(=O)N[C@@H](CC(C)C)C(=O)N[C@@H](CC(N)=O)C(=O)N[C@@H](CO)C(=O)N[C@@H](CCSC)C(=O)N[C@@H](CCC(=O)O)C(=O)N[C@@H](CCCN=C(N)N)C(=O)N[C@H](C(=O)N[C@@H](CCC(=O)O)C(=O)N[C@@H](Cc1c[nH]c2ccccc12)C(=O)N[C@@H](CC(C)C)C(=O)N[C@@H](CCCN=C(N)N)C(=O)N[C@@H](CCCCN)C(=O)N[C@@H](CCCCN)C(=O)N[C@@H](CC(C)C)C(=O)N[C@@H](CCC(N)=O)C(=O)N[C@@H](CC(=O)O)C(=O)N[C@H](C(=O)N[C@@H](Cc1cnc[nH]1)C(=O)N[C@@H](CC(N)=O)C(=O)N[C@@H](Cc1ccccc1)C(=O)O)C(C)C)C(C)C [hPTH(1-34)]
reduction in nonvertebral fractures: 54%
reduction in spine fractures: ≥ 65%
